# US7402433B2, “Method of in-vitro micropropagation of Piper longum plants” (Reliance Life Sciences Pvt. Ltd., priority 2003, dated 2008)
# Key:
# Format in all cases: cell-based
# [1] = test system: root segments (rhizogenic tissues) of Piper longum; experiment: Shoot bud proliferation from root segments on MS medium with BAP; settings: 23° C.
# Description: Sub-culturing the 18 root segments separately onto MS basal medium supplemented with Benzyl Amino Purine (BAP) (0.5-3 mg/L), 2-4% sucrose, 100 mg/l myo-inositol and 0.7-1.2% agar for solidifying the medium.
# Cultures were kept at 23° C. +/−1° C. under 2000-4000 Lux light intensity for a photoperiod of 16 hours followed by a dark period of 8 hours.
# Each segment produced 50-55 adventitious shoot buds i.e. (18×50=900 shoot buds).
# [2] = test system: lateral bud (meristematic) explant of Piper longum; experiment: Induction of rhizogenesis from lateral bud explants on culture initiation medium (MS + NAA)
# Description: Preparing culture initiation medium by using MS basal medium described by Murashige and Skoog in 1968. To the MS basal medium, sucrose (2-4%), agar powder (0.7-1.2%), 100 mg/L myo-inositol and Naphthalene Acetic Acid (NAA) (0.01-0.5 mg/L) was added. This medium was autoclaved at 15 psi for 20 min and then cooled to solidify at room temperature.
# Using sterilized forceps, each isolated and surface sterilized lateral bud was inoculated in a test tube containing 15 ml of above-mentioned medium; by placing the cut end of the lateral buds touching the medium.
# Incubating the inoculated explants in dark at 23° C. +/−1° C. for 7-15 days. By this time, 6-7 root primordia appear from the basal cut end of all the lateral buds.
# Transferring incubated cultures in light having 2000-4000 lux light intensity.
# A photoperiod of 16 hours was provided followed by a dark period of 8 hours daily.
# Allowing each root to grow to an average size of […] in 45 days.
# A lateral bud (meristematic) explant from any position of a young or mature plant of Piper longum was taken and cultured in an MS basal medium supplemented with sucrose (2-4%), NAA (0.1-0.5 mg/l) and gelled with agar (0.7-1.2%). These were incubated in dark for 10 days at 23° C.±1° C. and transferred to a light intensity of 1000-3000 lux for 16 Hrs. followed by 8 Hrs. dark period resulting into rhizogenesis, producing 6-7 root like organs, by direct organogenosis from meristematic tissues of lateral buds, which grew up to 1.5 cm in length by 45th day of isolation.
# [3] = test system: regenerated shoots of Piper longum; experiment: Rooting of regenerated shoots on MS medium with IBA; settings: IBA 0.1-3.1 mg/L
# Description: 2.5-3 cm long shoots with 2-3 nodes were carefully separated from the culture clumps using a sterile scalpel under LF.
# Sub-culturing 10 separated shoots in a wide mouthed bottle containing MS basal medium fortified with Indole Butyric Acid (IBA) (1-3 mg/L), 2-4% sucrose, 100 mg/L myo-inositol and 0.7-1.2% agar.
# Rooting of the regenerated shoots under reduced light 1000-3000 Lux for 28 days. Photoperiod and temperatures remains the same as before.
compound,measurement,setting,value
"c1ccc(CNc2ncnc3[nH]cnc23)cc1 [BAP, Benzylaminopurine]",adventitious shoot buds produced per root segment,"[1]; BAP 0.5-3 mg/L in MS basal medium, 2000-4000 Lux, 16 hours photoperiod",50-55
same,adventitious shoot bud formation,"[1]; BAP 0.5-3 mg/L, 0.5 cm long root segments, 2000-4000 lux, 16 Hrs. light/8 Hrs. dark",adventitious shoot bud formation from all the root segments
Naphthalene Acetic Acid [NAA],root primordia appearing from the basal cut end of the lateral buds,"[2]; NAA 0.01-0.5 mg/L in MS basal medium, dark, 23° C. +/−1° C., 7-15 days",6-7
same,root like organs produced by direct organogenesis (rhizogenesis),"[2]; NAA 0.1-0.5 mg/l in MS basal medium, 10 days dark at 23° C., then 1000-3000 lux 16 Hrs./8 Hrs. dark",6-7
same,length of root like organs,"[2]; NAA 0.1-0.5 mg/l, by 45th day of isolation",up to 1.5 cm
Indole Butyric Acid [IBA],response of separated shoots (rooting),[3],All separated shoots were responsive
same,root system from the basal cut ends of shoots,[3]; in 4 weeks time,produced healthy root system
